Test results as given in patent US20250114486A1, “MARKED FATTY ACID DERIVATIVE, PRECURSOR COMPOUND THEREOF, AND USE THEREOF IN CONTRAST AGENT” (BEIJING NORMAL UNIVERSITY, priority 2022, published 2025).

Assay: In vivo biodistribution of radioactive ^99mTc complexes in female SD rats
Design: species or system female Sprague-Dawley (SD) rats
Method: Female SD rats (180-220 g, n=3) were fasted for 12 h before the experiment, and the purified radioactive 99mTc complexes 78-81 were prepared into physiological saline (containing 10% ethanol) solutions of about 250-350 μCi/mL. 200 μL of the above solution was injected into the tail vein of female SD rats, and the rats were killed by cervical dislocation at five time points, 15, 30, 60, 120 and 240 min after the tail vein injection. The blood, brain, heart, liver, spleen, lung, kidney, muscle, bone, large intestine, small intestine, stomach and tail were collected, weighed and counted, and the count distribution of each tissue and organ was calculated (unit: % ID/g, the unit of large intestine, small intestine and stomach is % ID), and the data are the mean±standard deviation of three mice in each phase. At the same time, 200 μL of the above solution was diluted to 20 mL, which was used as the % ID without deducting the tail count.

## COC(C)(C)C[N+]#[C][99Tc-5]([C]#[N+]CC(C)(C)OC)([C]#[N+]CC(C)(C)OC)([C]#[N+]CC(C)(C)OC)([C]#[N+]CC(C)(C)OC)[C]#[N+]CC(C)(C)OCCSCCCCC(=O)O [^99mTc complex 78]
  absolute myocardial uptake values (comparison with complexes 79-81): lower than the above values
  heart-to-liver ratios (comparison with complexes 79-81): lower than the above values
